# Assay results from patent EP0646015B1, “CONTRACEPTIVE VACCINE” (THE UNIVERSITY OF CONNECTICUT, priority 1992, dated 1993).
# Several values for one entry are separate records, joined by “and”; a condition that tells them apart may be missing. Equal entries are not always repeated.
# Test system: sperm-egg fusion
# Experiment: sperm-egg fusion inhibition assay
# Assay type: cell-based, guinea pig
# Parameters: inhibits sperm-egg fusion / % Inhibition: concentration or dose not given beside the values
# Description: The fusion inhibition assay was carried out as follows. Eggs were collected from guinea pig ovaries. The eggs were incubated in tissue culture medium overnight. The zona pellucida was removed with a mixture of proteases. The zona pellucida free eggs were incubated in culture media with peptide at a specified concentration for 30 minutes.
# Sperm collected from the epididymis of male guinea pigs was capacitated by incubation and acrosome reacted as described by Fleming and Yanagimachi (Gamete Res. 4: 253-273 (1981)) and added to the eggs and incubated for 15 minutes. The eggs were then transferred to a sperm free culture medium and incubated for an additional 1 hour and 45 minutes. The eggs were then fixed and stained as described by Primakoff et al. (J. Cell. Biol. 104: 141 (1987)). The total number of swollen sperm heads were then counted. Swollen sperm heads are an indication that the sperm and egg have fused.
# On the basis of these observations, several indices are calculated. The fertilization index (F.I.) is determined by dividing the total number of swollen heads by the total number of eggs. The fertilization rate (F.R.) is the percentage of eggs fertilized. The percent inhibition is determined by dividing the fertilization index of the experimental peptide by the fertilization index of the control peptide.
substance,measurement,setting,value
CSTDEC,F.R.,"Table 4, TDE peptides compared with no peptide control",8% and 11%
same,% Inhibition,"Table 4, relative to F.I. of no peptide control of the same experiment",89% and 95%
same,% Inhibition,"Table 5, relative to F.I. of control peptide GRGES of the same experiment",90% and 98%
same,inhibition of sperm-egg fusion (in words),compared to no peptide or control peptide,strongly inhibited
same,inhibits sperm-egg fusion,"when the fertilization index is near the normal level of 1 sperm per egg, compared with no peptide (Table 4)",89%
